Laboratory results from patent EP3981864A1, “DETERGENT COMPOSITION” (priority 2020, dated 2022).

What was measured:
[1] = molecular target: T1, Arabidopsis thaliana αDOX (SEQ ID NO: 3), fatty acid alpha-dioxygenase, Q9SGH6, variant with N-terminal His-tag, MBP tag and TEV site SEQ ID NO: 253 (Arabidopsis thaliana, UniProt Q9SGH6); assay: Alpha-dioxygenase activity assay (oxygen consumption, TON); assay type: biochemical; conditions: fatty acid 100 µM, enzyme 6 ppm, 50 mM HEPES pH 9.0, 37°C; initial rate of oxygen consumption / enzyme concentration
T1 construct: His-tag (N); MBP tag (N); TEV protease cleavage site (N); made in house; host or cells: Escherichia coli BL21 (DE3), modified pET28a
T1 sequence (Q9SGH6 1-639): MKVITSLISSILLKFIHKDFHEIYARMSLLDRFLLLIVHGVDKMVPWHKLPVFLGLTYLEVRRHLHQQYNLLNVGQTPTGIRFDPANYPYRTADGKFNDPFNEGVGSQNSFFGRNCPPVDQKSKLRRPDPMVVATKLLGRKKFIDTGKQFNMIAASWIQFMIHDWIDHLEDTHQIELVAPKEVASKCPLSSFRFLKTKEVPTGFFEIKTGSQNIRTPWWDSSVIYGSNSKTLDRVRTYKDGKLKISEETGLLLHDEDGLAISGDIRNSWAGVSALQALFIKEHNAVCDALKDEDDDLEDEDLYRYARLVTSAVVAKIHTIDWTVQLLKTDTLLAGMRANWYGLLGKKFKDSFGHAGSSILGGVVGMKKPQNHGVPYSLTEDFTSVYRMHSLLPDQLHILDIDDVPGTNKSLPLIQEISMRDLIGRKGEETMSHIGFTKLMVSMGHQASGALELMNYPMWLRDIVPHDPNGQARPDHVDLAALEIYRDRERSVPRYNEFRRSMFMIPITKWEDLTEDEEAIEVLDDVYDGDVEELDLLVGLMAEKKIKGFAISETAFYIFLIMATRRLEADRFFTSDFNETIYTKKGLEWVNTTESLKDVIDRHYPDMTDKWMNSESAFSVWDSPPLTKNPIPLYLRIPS
Description: Arabidopsis thaliana αDOX (SEQ ID NO: 3) is a fatty acid alpha-dioxygenase that converts fatty acids into the corresponding 2-hydroperoxy fatty acids and is included as an example of the present invention. A codon optimized gene (SEQ ID NO: 252) encoding for an alpha-dioxygenase variant was designed and synthesized by Genscript. After synthesis, the gene was cloned into a modified version of pET28a, such as the final plasmid encoded for a αDOX variant including an N-terminal amino acid sequence containing a His-tag, an MBP tag, and a TEV protease cleavage site (SEQ ID NO: 253). For heterologous expression, Escherichia coli BL21 (DE3) cells were transformed with the recombinant plasmid and a single colony was inoculated into LB medium containing kanamycin (50 mg/L). A pre-starter culture was then inoculated into flasks containing TB Media supplemented with kanamycin (50 mg/L) and incubated at 37 °C. At an OD600nm about 4, IPTG (final concentration 0.1 mM) and 5-aminolevulinic acid (final concentration 0.5 mM) were added to the culture and further incubated at 16 °C for 16 h. Cells were harvested by centrifugation and the pellet was lysed. After centrifugation, the supernatant was collected, and the protein was purified by one-step purification using Ni-NTA affinity chromatography and standard protocols known in the art. The protein was stored in 1×PBS buffer containing 10% Glycerol and at pH 7.4. The purified enzyme was stored at -80 °C until use.
Reactions with alpha-dioxygenases were performed as follows. An aliquot of fatty acid in ethanol (final concentration 100 µM) was resuspended in buffer (50 mM HEPES at pH 9.0) in a scintillation vial. The reaction was started by addition of enzyme (final concentration 6 ppm). The reaction was incubated for up to 10 minutes at 37°C with 200 rpm agitation and the conversion was monitored using an oxygen sensor. The TON (in s-1) were calculated as the ratio between the initial rate of oxygen consumption (in µM/s) and the concentration of enzyme (in µM). […]

[2] = tested on: Mycolicibacterium fortuitum αDOX (SEQ ID NO: 14), fatty acid alpha-dioxygenase, K0VM18, N-terminal His-tag variant SEQ ID NO: 275 (comparative); assay: as above; assay type: biochemical; conditions: fatty acid 100 µM, enzyme 6 ppm, 50 mM HEPES pH 9.0, 37°C; initial rate of oxygen consumption / enzyme concentration
Description: Mycolicibacterium fortuitum αDOX (SEQ ID NO: 14) is a fatty acid alpha-dioxygenase that converts fatty acids into the corresponding 2-hydroperoxy fatty acids and is included as a comparative example of the present invention. A codon optimized gene (SEQ ID NO: 274) encoding for an alpha-dioxygenase variant (SEQ ID NO: 275), including an N-terminal amino acid sequence containing a His-tag was designed and synthesized by Genscript. After gene synthesis, the protein was expressed and purified. In brief, the complete synthetic gene sequence was subcloned into a pET30a vector using the NdeI/HindIII cloning sites. For heterologous expression, Escherichia coli BL21 (DE3) cells were transformed with the recombinant plasmid and a single colony was inoculated into LB medium containing kanamycin (50 mg/L). A pre-starter culture was then inoculated into flasks containing Magic Media (Thermo Fisher, Catalog # K6803) supplemented with kanamycin (50 mg/L) and incubated at 16 °C for 72 h. At an OD600nm = 0.5 - 1.0, 5-aminolevulinic acid (final concentration 0.5 mM) was added. Cells were harvested by centrifugation at 5000 rpm and 4°C and the pellet was lysed using a bacterial cell lysis buffer (B-PER - Themo Fisher, Waltham, MA). After centrifugation, the supernatant was collected, and the protein was purified by one-step purification using HisPur™ Ni-NTA Spin Columns (Thermo Scientific, Catalog # 88226) and standard protocols known in the art. […]
Reactions with alpha-dioxygenases were performed as follows. […] The reaction was incubated for up to 10 minutes at 37°C with 200 rpm agitation and the conversion was monitored using an oxygen sensor. The TON (in s-1) were calculated as the ratio between the initial rate of oxygen consumption (in µM/s) and the concentration of enzyme (in µM). […]

CCCCCCCC/C=C\CCCCCCCC(=O)O [Oleic Acid]
Oleic Acid, TON [1]: 0.14 s⁻¹ | Oleic Acid, TON [2]: 0.00 s⁻¹

CCCCCCCCCCCCCCCC(=O)O [Palmitic Acid]
Palmitic Acid, TON [1]: 1.01 s⁻¹ | Palmitic Acid, TON [2]: 0.21 s⁻¹

CCCCCCCCCCCCCCCCCC(=O)O [Stearic Acid]
Stearic Acid, TON [1]: 0.47 s⁻¹ | Stearic Acid, TON [2]: 0.03 s⁻¹
